Patent US7323447B2, “Hepatitis C virus inhibitors” (Bristol-Myers Squibb Company, priority 2005, dated 2008)
Read-outs that look alike come from different tables or passages of the source.

How the values were obtained:
[1] = test system: HCV replicon in HUH-7 cells; assay: HCV replicon FRET assay; format: cell-based, Hepatitis C virus (strain 1b); conditions: Hepatitis C virus
Outline: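 HUH-7 cells carrying a genotype 1b subgenomic neo replicon (NS3–NS5B) treated 4 days at 37 °C with compound in 0.5% DMSO final. CC50 from alamarBlue fluorescence after 4 h; cells then lysed with FRET protease substrate at 10 μM final and read kinetically at 340/490 nm to give EC50.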

[2] = target: T1, human neutrophil elastase (HNE) (Homo sapiens, UniProt P08246); assay: Specificity assay, human neutrophil elastase; format: biochemical; conditions: read-out: HLE activity in the specificity assays (IC50)
T1 construct: purchased Sigma or EMDbiosciences
T1 sequence (P08246 30-267): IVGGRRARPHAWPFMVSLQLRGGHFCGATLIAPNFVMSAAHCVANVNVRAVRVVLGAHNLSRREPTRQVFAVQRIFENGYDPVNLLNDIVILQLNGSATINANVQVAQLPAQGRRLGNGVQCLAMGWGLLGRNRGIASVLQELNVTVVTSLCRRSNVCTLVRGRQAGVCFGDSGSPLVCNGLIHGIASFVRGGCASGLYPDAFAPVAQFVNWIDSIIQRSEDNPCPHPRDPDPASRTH
Description: (§1) The specificities of compounds of the present disclosure were determined against a variety of serine proteases: human neutrophil elastase (HNE), porcine pancreatic elastase (PPE) and human pancreatic chymotrypsin and one cysteine protease: human liver cathepsin B. In all cases, a 96-well plate format protocol using colorimetric p-nitroaniline (pNA) substrate or fluorometric Amino-Methyl-Coumarin (AMC) substrate, specific for each enzyme was used as described previously (PCT Patent Application No. WO 00/09543) with some modifications. All enzymes were purchased from Sigma or EMDbiosciences while the substrates were from Bachem.
(§2) Each pNA assay included a 2 hours enzyme-inhibitor pre-incubation at room temperature followed by addition of substrate and hydrolysis to ˜15% conversion as measured on a Spectramax Pro microplate reader. The cathepsin B assay was initiated by adding substrate to a 10 min enzyme-inhibitor pre-incubation at room temperature, and the assay plate measured immediately using the Cytofluor Series 4000. Compound concentrations varied from 100 to 0.4 μM depending on their potency. […]
(§3) The percentage of inhibition was calculated using the formula: [1−((UVinh−UVblank)/(UVctl−UVblank))]×100 […]

[3] = target: T2, human liver cathepsin B (Homo sapiens, UniProt P07858); assay: Specificity assay, cathepsin B; format: biochemical; conditions: read-out: Cathepsin B activity in the specificity assays (IC50)
T2 construct: purchased Sigma or EMDbiosciences; host or cells: human liver
Description: as §1, §2, §3

SMILES: C=C[C@@H]1C[C@]1(NC(=O)[C@@H]1C[C@@H](OC(=O)N2Cc3cccc(F)c3C2)CN1C(=O)[C@@H](OC(=O)NC(C)(C)C)C(C)(C)C)C(=O)NS(=O)(=O)C1CC1 [Example 56Compound 56]
- EC50 ([1]; Huh-7, 96 h, replicon FRET assay, HUH-7, 4 days, read-out: EC50 value in the replicon FRET assay): 742 nM
- EC50 ([1]; Huh-7, read-out: EC50 Range, HCV replicon cell assay, Table 1): 500 to 5000 nM
- IC50 [2]: > 100000 nM
- IC50 [3]: > 100000 nM
